Molecules are shown by their SMILES.

For this experiment, the target named is T1, STAT3 (Homo sapiens, UniProt P40763).
T1 construct: expressed in transfected cells; host or cells: A549
T1 sequence (P40763 whole entry): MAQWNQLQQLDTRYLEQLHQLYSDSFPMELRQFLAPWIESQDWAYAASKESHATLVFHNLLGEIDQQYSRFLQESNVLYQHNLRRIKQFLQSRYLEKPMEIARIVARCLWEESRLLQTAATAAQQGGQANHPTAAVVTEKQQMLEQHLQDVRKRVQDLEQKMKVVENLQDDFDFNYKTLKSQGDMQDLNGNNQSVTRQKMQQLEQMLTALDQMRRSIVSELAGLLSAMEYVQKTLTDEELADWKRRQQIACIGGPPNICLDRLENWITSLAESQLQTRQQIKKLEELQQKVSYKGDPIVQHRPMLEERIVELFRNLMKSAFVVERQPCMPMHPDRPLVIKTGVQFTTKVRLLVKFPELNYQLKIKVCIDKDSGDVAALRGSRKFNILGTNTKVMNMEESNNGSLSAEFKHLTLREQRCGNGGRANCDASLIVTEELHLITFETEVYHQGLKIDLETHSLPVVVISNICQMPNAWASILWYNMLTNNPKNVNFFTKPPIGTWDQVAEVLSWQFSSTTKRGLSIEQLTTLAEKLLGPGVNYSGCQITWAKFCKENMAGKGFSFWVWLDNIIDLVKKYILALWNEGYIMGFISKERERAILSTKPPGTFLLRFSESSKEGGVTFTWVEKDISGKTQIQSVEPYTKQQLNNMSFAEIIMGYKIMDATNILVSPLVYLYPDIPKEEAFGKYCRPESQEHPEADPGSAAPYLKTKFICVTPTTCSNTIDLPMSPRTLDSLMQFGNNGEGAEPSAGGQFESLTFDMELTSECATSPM
Kind of experiment: STAT3 HiBiT degradation assay (Nano-Glo HiBiT lytic detection) in transfected A549 cells. Type of experiment: cell-based. The note with it: 24 h compound incubation, read-out: STAT3 HiBIT A549 degradation 24 h: Average external-Abs DC50. The method, then: Example 1. HiBiT Assay Protocol
Compound preparation and Cell seeding: The transfected A549 cells were harvested from dish into cell culture medium and cell numbers counted. Cells were diluted with culture medium to the desired density and 30 μL of cell suspension (about 2000 cells/well) were added into each well of a 384-well cell culture plate as designated and transferred into 37° C. 5% CO2 incubator for 24 h. Compounds were dissolved to 10 mM stock solution and 12 μL of the stock solution was transferred to a 384 LDV-plate. 3 fold, 10-point dilution was performed by transferring 4 μL compound into 8 μL DMSO using a TECAN (EVO200) liquid handler. 30 μl of diluted compound from compound source plate was transferred into the cell plate as designated by using Echo550 and transferred into 37° C. 5% CO2 incubator for 24 h.
Detection: Plates were removed from incubators and equilibrated at room temperature for 15 minutes. Nano-Glo Hibit Lytic Detection reagent (Promega Cat #N3040) was thawed and equilibrated to room temperature before the experiment. 30 μL of Nano-Glo Hibit Lytic Detection reagent was added into each well to be detected. The plates were held at room temperature for 10 min followed by reading on EnSpire.
Data analysis: The remaining activity was calculated following the formula: Remaining Activity (%)=100%×(Lumsample−LumNC)/(LumPC−LumNC). Calculate the IC50 by fitting the curve using Xlfit (v5.3.1.3), equation 201: fit=(A+((B−A)/(1+((x/C)^D)))); A: Botton; B: Top; C: IC50; and D: Slope.
The letter codes for STAT3 DC50 include: A (<0.01 μM), B (0.01-0.1 μM), C (0.1-1.0 μM), and D (>1.0 μM).
On to `Cc1ncsc1-c1ccc([C@H](C)NC(=O)[C@@H]2C[C@@H](O)CN2C(=O)[C@@H](NC(=O)CC2CCC(c3cccc(OC[C@H](CCC(N)=O)NC(=O)[C@@H]4Cc5cccc6c5N4C(=O)[C@@H](NC(=O)c4cc5cc(C(=O)P(=O)(O)O)ccc5[nH]4)CC6)c3Cl)CC2)C(C)(C)C)cc1` (some centres unmarked) [I-56], for which the DC50 was in the range of 100 to 1000 nM.
In the case of `Cn1c(=O)n(C2CCC(=O)NC2=O)c2ccc(NCCCCCc3cc4c5c(c3)C[C@@H](C(=O)N[C@@H](CCC(N)=O)C(=O)NCc3ccc(S(C)(=O)=O)cc3)N5C(=O)[C@@H](NC(=O)c3cc5cc(C(=O)P(=O)(O)O)ccc5[nH]3)CC4)cc21` (stereo partly drawn) [I-57, 2-[[(2S,11S)-2-[[(1S)-3-carbamoyl-1-[[(4-methanesulfonylphenyl)methyl]carbamoyl]propyl]carbamoyl]-6-(5-[[1-(2,6-dioxopiperidin-3-yl)-3-methyl-2-oxo-1,3-benzodiazol-5-yl]amino]pentyl)-12-oxo-1-azatricyclo[6.4.1.0^[4,13]]trideca-4(13),5,7-trien-11-yl]carbamoyl]-1H-indole-5-carbonylphosphonic acid] it was 10 to 100 nM.
As for `Cc1ncsc1-c1ccc([C@H](C)NC(=O)[C@@H]2C[C@@H](O)CN2C(=O)[C@@H](NC(=O)CCCc2cccc(OC[C@H](CCC(N)=O)NC(=O)[C@@H]3CCCN3C(=O)[C@H](C)NC(=O)c3cc4cc(C(=O)P(=O)(O)O)ccc4[nH]3)c2Cl)C(C)(C)C)cc1` [I-58], the DC50 is 10 to 100 nM.
In the case of `CC(C)c1ccc(CNC(=O)[C@H](CCC(N)=O)NC(=O)[C@@H]2CC[C@@H]3CCN(C(=O)[C@H]4CC[C@@H](CCc5ccc6c(c5)n(C)c(=O)n6C5CCC(=O)NC5=O)CC4)C[C@H](NC(=O)c4cc5cc(C(=O)P(=O)(O)O)ccc5[nH]4)C(=O)N32)cc1` (stereo partly drawn) [I-59, (2-(((5S,8S,10aR)-8-(((S)-5-amino-1-((4-isopropylbenzyl)amino)-1,5-dioxopentan-2-yl)carbamoyl)-3-((1r,4R)-4-(2-(1-(2,6-dioxopiperidin-3-yl)-3-methyl-2-oxo-2,3-dihydro-1H-benzo[d]imidazol-5-yl)ethyl)cyclohexane-1-carbonyl)-6-oxodecahydropyrrolo[1,2-a][1,5]diazocin-5-yl)carbamoyl)-1H-indole-5-carbonyl)phosphonic acid] it was 10 to 100 nM; in that of `Cc1ncsc1-c1ccc([C@H](C)NC(=O)[C@@H]2C[C@@H](O)CN2C(=O)[C@@H](NC(=O)CCCc2cccc(OC[C@H](CCC(N)=O)NC(=O)[C@@H]3CC[C@@H]4CCN(C(=O)c5cccc(F)c5)C[C@H](NC(=O)c5cc6cc(C(=O)P(=O)(O)O)ccc6[nH]5)C(=O)N43)c2Cl)C(C)(C)C)cc1` [I-60], 10 to 100 nM; in that of `Cc1ncsc1-c1ccc([C@H](C)NC(=O)[C@@H]2C[C@@H](O)CN2C(=O)[C@@H](NC(=O)CCCc2cccc(OC[C@H](CCC(N)=O)NC(=O)[C@@H]3CCCN3C(=O)[C@H](Cc3c[nH]cn3)NC(=O)c3cc4cc(C(=O)P(=O)(O)O)ccc4[nH]3)c2Cl)C(C)(C)C)cc1` [I-61], 10 to 100 nM.
In the case of `CCS(=O)(=O)c1ccc(CNC(=O)[C@H](CCC(N)=O)NC(=O)[C@@H]2CC[C@@H]3CCN(C(=O)C[C@H]4CC[C@@H](Cc5ccc6c(c5)n(C)c(=O)n6C5CCC(=O)NC5=O)CC4)C[C@H](NC(=O)c4cc5cc(C(=O)P(=O)(O)O)ccc5[nH]4)C(=O)N32)cc1` (some centres unmarked) [I-62], the DC50 was in the range of 10 to 100 nM.
As to `Cc1ncsc1-c1ccc(CNC(=O)[C@@H]2C[C@@H](O)CN2C(=O)[C@@H](c2cc(OCCCc3cccc(OC[C@H](CCC(N)=O)NC(=O)[C@@H]4Cc5cccc6c5N4C(=O)[C@@H](NC(=O)c4cc5cc(C(=O)P(=O)(O)O)ccc5[nH]4)CC6)c3Cl)no2)C(C)C)cc1` [I-63], the DC50 was less than 10 nM.
In the case of `CN1C(=O)CCC(n2c(=O)n(C)c3cc(C[C@H]4CC[C@@H](CC(=O)N5CC[C@H]6CC[C@@H](C(=O)N[C@@H](CCC(N)=O)C(=O)NC(c7ccccc7)c7ccccc7)N6C(=O)[C@@H](NC(=O)c6cc7cc(C(=O)P(=O)(O)O)ccc7[nH]6)C5)CC4)ccc32)C1=O` (some centres unmarked) [I-64] it was greater than 1000 nM; in that of `C[C@H](NC(=O)[C@@H]1Cc2cc(CCCCCCc3ccc4c(c3)n(C)c(=O)n4C3CCC(=O)NC3=O)cc3c2N1C(=O)[C@@H](NC(=O)c1cc2cc(C(=O)P(=O)(O)O)ccc2[nH]1)CC3)C(=O)NCc1ccc(S(C)(=O)=O)cc1` (stereo partly drawn) [I-65, 2-[[(2S,11S)-6-[6-[1-(2,6-dioxopiperidin-3-yl)-3-methyl-2-oxo-1,3-benzodiazol-5-yl]hexyl]-2-[[(1S)-1-[[(4-methanesulfonylphenyl)methyl]carbamoyl]ethyl]carbamoyl]-12-oxo-1-azatricyclo[6.4.1.0^[4,13]]trideca-4(13),5,7-trien-11-yl]carbamoyl]-1H-indole-5-carbonylphosphonic acid], greater than 1000 nM; in that of `Cc1ncsc1-c1ccc([C@H](C)NC(=O)[C@@H]2C[C@@H](O)CN2C(=O)[C@@H](NC(=O)CCCc2cccc(OC[C@H](CCC(N)=O)NC(=O)[C@@H]3CC[C@@H]4CCN(C(=O)C(F)(F)F)C[C@H](NC(=O)c5cc6cc(C(=O)P(=O)(O)O)ccc6[nH]5)C(=O)N43)c2Cl)C(C)(C)C)cc1` [I-66], less than 10 nM.
For `Cn1c(=O)n(C2CCC(=O)NC2=O)c2ccc(C[C@H]3CC[C@@H](CC(=O)N4CC[C@H]5CC[C@@H](C(=O)N[C@@H](CCC(N)=O)COc6ccc(S(C)(=O)=O)cc6)N5C(=O)[C@@H](NC(=O)c5cc6cc(C(=O)P(=O)(O)O)ccc6[nH]5)C4)CC3)cc21` (some centres unmarked) [I-67], the DC50 was 100 to 1000 nM.
In the case of `Cn1c(=O)n(C2CCC(=O)NC2=O)c2ccc(CC[C@H]3CC[C@@H](C(=O)N4CC[C@H]5CC[C@@H](C(=O)N[C@@H](CCC(N)=O)C(=O)NCc6ccc(S(C)(=O)=O)cc6)N5C(=O)[C@@H](NC(=O)c5cc6cc(C(=O)P(=O)(O)O)ccc6[nH]5)C4)CC3)cc21` (stereo partly drawn) [I-68, 2-[[(5S,8S,10aR)-8-[[(1S)-3-carbamoyl-1-[[(4-methanesulfonylphenyl)methyl]carbamoyl]propyl]carbamoyl]-6-oxo-3-[(1r,4s)-4-[2-[1-(2,6-dioxopiperidin-3-yl)-3-methyl-2-oxo-1,3-benzodiazol-5-yl]ethyl]cyclohexanecarbonyl]-octahydropyrrolo[1,2-a][1,5]diazocin-5-yl]carbamoyl]-1H-indole-5-carbonylphosphonic acid] it was 10 to 100 nM.
In the case of `CC(=O)N1CC[C@H]2CC[C@@H](C(=O)N[C@@H](CCC(N)=O)COc3cccc(CCCOc4cc([C@H](C(=O)N5C[C@H](O)C[C@H]5C(=O)NCc5ccc(-c6scnc6C)cc5)C(C)C)on4)c3Cl)N2C(=O)[C@@H](NC(=O)c2cc3cc(C(=O)P(=O)(O)O)ccc3[nH]2)C1` [I-69] it was less than 10 nM; in that of `CC(C)S(=O)(=O)c1ccc(CNC(=O)[C@H](CCC(N)=O)NC(=O)[C@@H]2CC[C@@H]3CCN(C(=O)C[C@H]4CC[C@@H](Cc5ccc6c(c5)n(C)c(=O)n6C5CCC(=O)NC5=O)CC4)C[C@H](NC(=O)c4cc5cc(C(=O)P(=O)(O)O)ccc5[nH]4)C(=O)N32)cc1` (some centres unmarked) [I-70], 10 to 100 nM; in that of `Cc1ncsc1-c1ccc(C2(NC(=O)[C@@H]3C[C@@H](O)CN3C(=O)[C@@H](NC(=O)CCCc3cccc(OC[C@H](CCC(N)=O)NC(=O)[C@@H]4Cc5cccc6c5N4C(=O)[C@@H](NC(=O)c4cc5cc(C(=O)P(=O)(O)O)ccc5[nH]4)CC6)c3Cl)C(C)(C)C)CC2)cc1` [I-71], 10 to 100 nM.
In the case of `CC(=O)N1CC[C@H]2CC[C@@H](C(=O)N[C@@H](CCC(N)=O)COc3cccc(CCCC(=O)N[C@H](C(=O)N4C[C@H](O)C[C@H]4C(=O)NC4(c5ccc(-c6scnc6C)cc5)CC4)C(C)(C)C)c3Cl)N2C(=O)[C@@H](NC(=O)c2cc3cc(C(=O)P(=O)(O)O)ccc3[nH]2)C1` [I-72] it was 10 to 100 nM.
Take `Cn1c(=O)n(C2CCC(=O)NC2=O)c2ccc(CC[C@H]3CC[C@H](C(=O)N4CC[C@H]5CC[C@@H](C(=O)N[C@@H](CCC(N)=O)C(=O)NCc6ccc(S(C)(=O)=O)cc6)N5C(=O)[C@@H](NC(=O)c5cc6cc(C(=O)P(=O)(O)O)ccc6[nH]5)C4)CC3)cc21` (some centres unmarked) [I-73]: the DC50 lay within 10 to 100 nM.
Take `Cn1c(=O)n(C2CCC(=O)NC2=O)c2ccc(C[C@H]3CC[C@H](CC(=O)N4CC[C@H]5CC[C@@H](C(=O)N[C@@H](CCC(N)=O)C(=O)NCc6ccc(S(C)(=O)=O)cc6)N5C(=O)[C@@H](NC(=O)c5cc6cc(C(=O)P(=O)(O)O)ccc6[nH]5)C4)CC3)cc21` (some centres unmarked) [I-74]: the DC50 lay in the range of 10 to 100 nM.
With `Cn1c(=O)n(C2CCC(=O)NC2=O)c2ccc(C[C@H]3CC[C@@H](CC(=O)N4CC[C@H]5CC[C@@H](C(=O)N[C@@H](CCC(N)=O)C(=O)NCc6ccc(S(C)(=O)=O)cc6)N5C(=O)[C@@H](NC(=O)c5cc6cc(C(=O)O)ccc6[nH]5)C4)CC3)cc21` (stereo partly drawn) [I-75, 2-[[(5S,8S,10aR)-8-[[(1S)-3-carbamoyl-1-[[(4-methanesulfonylphenyl)methyl]carbamoyl]propyl]carbamoyl]-6-oxo-3-[2-[(1s,4s)-4-[[1-(2,6-dioxopiperidin-3-yl)-3-methyl-2-oxo-1,3-benzodiazol-5-yl]methyl]cyclohexyl]acetyl]-octahydropyrrolo[1,2-a][1,5]diazocin-5-yl]carbamoyl]-1H-indole-5-carboxylic acid], the DC50 is greater than 1000 nM.
